According to the NIST ThermoML archive (doi:10.1021/je034218n):

Settings: Liquid, vibrating tube

COCCOCCO [2-(2-methoxyethoxy)ethanol]
mass density [kg/m3]
Settings	100 kPa	1000 kPa	2500 kPa	5000 kPa	7500 kPa	10000 kPa	15000 kPa	20000 kPa	25000 kPa
283.15 K	1028.5	1029	1029.8	1031.2	1032.5	1033.9	1036.4	1039	1041.4
293.15 K	1019.5	1020	1020.9	1022.3	1023.7	1025.2	1027.9	1030.5	1033.1
303.15 K	1010.8	1011.3	1012.2	1013.6	1015	1016.4	1019.3	1022.1	1024.8
313.15 K	1002	1002.6	1003.5	1005.1	1006.7	1008.2	1011.2	1014.1	1016.9
323.15 K	993.2	993.9	994.9	996.6	998.3	1000	1003.2	1006.2	1009.2
333.15 K	983.9	984.6	985.6	987.4	989.1	990.8	994.1	997.2	1000.2
343.15 K	975.2	975.8	977	978.8	980.6	982.4	985.9	989.2	992.4
353.15 K	965.7	966.4	967.6	969.5	971.4	973.3	976.9	980.4	983.7
